These results are taken from patent publication US5922891A, “2-substituted 1,8-dihydroxy-9(10H)-anthracenone pharmaceuticals” (priority 1997, dated 1999).

Data set [1] is described as follows: Deoxyribose degradation as a measure of hydroxyl radical formation. The settings on record: 75 μM test compound; controls < 0.1. The data set is classed as biochemical.
Data set [2] is described as follows: Inhibition of AAPH-induced lipid peroxidation in bovine brain phospholipid liposomes. The data set is classed as biochemical. The note with it: AAPH-induced; bovine brain phospholipid liposomes; N = 3 or more; read-out: LPO IC50 (inhibition of lipid peroxidation).

In the case of `CC(C(=O)N(C)O)c1ccc2c(c1O)C(=O)c1c(O)cccc1C2` (centres unmarked) [VIID, N-Hydroxy-N-methyl-2-(9,10-dihydro-1,8-dihydroxy-9-oxo-2-anthracene)propionamide], in data set [1], the “DD (deoxyribose degradation, malondialdehyde released)” value (“DD” for short) is given as 1.57 ± 0.16 μmol of MDA/mmol. Besides, in data set [2], the IC50 (usually the concentration needed to halve the response being measured) is 8 µM.

As to `COC(=O)C(c1ccc2c(c1O)C(=O)c1c(O)cccc1C2)C(C)C` (centres unmarked) [VIIIB, Methyl 2-(9,10-Dihydro-1,8-dihydroxy-9-oxo-2-anthracene)-3-methylbutanoate], in data set [1], the “DD” value is on record as 0.54 ± 0.01 μmol of MDA/mmol. Besides, the concentration for half-maximal inhibition (IC50) in data set [2] amounted to 165 µM.

`COC(=O)CCCCc1ccc2c(c1O)C(=O)c1c(O)cccc1C2` [IVB, Methyl 5-(9,10-Dihydro-1,8-dihydroxy-9-oxo-2-anthracene)pentanoate]: in data set [1], the “DD” value is 0.62 ± 0.03 μmol of MDA/mmol. In addition, the IC50 in data set [2] is 62 µM.

In the case of `COC(=O)CCCCCc1ccc2c(c1O)C(=O)c1c(O)cccc1C2` [VB, Methyl 6-(9,10-Dihydro-1,8-dihydroxy-9-oxo-2-anthracene) hexaonate], in data set [1], the “DD” value is listed as 0.13 ± 0.02 μmol of MDA/mmol. Besides, in data set [2], the IC50 amounted to 120 µM.
